Reference: ChEMBL document CHEMBL1125726 (J Med Chem, 1991)

Experiments:
[1] = biological target: D(1A) dopamine receptor (Rattus norvegicus, UniProt P18901); assay: biochemical
Description: Compound was evaluated for its ability to inhibit dopamine receptor D1 in rat striatum using [3H]SCH-23390

[2] = biological target: D(2) dopamine receptor (Rattus norvegicus, UniProt P61169); assay: biochemical
Description: Compound was evaluated for its ability to inhibit dopamine receptor D2 in rat striatum using [3H]-spiperone

[3] = biological target: Dopamine receptor
Description: Compound was evaluated for its ability to inhibit Striatal Dopamine Receptor in rat brain through radioreceptor assay carried out with agonist ligand.

Sequence of D(2) dopamine receptor (P61169 whole entry): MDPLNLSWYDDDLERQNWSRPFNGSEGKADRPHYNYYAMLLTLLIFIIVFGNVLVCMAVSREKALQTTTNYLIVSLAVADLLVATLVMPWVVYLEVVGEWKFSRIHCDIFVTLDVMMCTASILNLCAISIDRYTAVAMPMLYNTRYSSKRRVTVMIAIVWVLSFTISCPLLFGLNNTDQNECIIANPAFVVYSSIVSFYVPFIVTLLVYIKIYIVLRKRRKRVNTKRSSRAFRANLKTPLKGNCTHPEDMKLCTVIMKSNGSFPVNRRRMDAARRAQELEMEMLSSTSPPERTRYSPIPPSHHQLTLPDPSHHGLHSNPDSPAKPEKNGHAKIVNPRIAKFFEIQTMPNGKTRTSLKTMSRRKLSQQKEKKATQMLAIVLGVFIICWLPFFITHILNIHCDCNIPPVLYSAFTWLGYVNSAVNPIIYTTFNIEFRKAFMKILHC
Sequence of D(1A) dopamine receptor (P18901 whole entry): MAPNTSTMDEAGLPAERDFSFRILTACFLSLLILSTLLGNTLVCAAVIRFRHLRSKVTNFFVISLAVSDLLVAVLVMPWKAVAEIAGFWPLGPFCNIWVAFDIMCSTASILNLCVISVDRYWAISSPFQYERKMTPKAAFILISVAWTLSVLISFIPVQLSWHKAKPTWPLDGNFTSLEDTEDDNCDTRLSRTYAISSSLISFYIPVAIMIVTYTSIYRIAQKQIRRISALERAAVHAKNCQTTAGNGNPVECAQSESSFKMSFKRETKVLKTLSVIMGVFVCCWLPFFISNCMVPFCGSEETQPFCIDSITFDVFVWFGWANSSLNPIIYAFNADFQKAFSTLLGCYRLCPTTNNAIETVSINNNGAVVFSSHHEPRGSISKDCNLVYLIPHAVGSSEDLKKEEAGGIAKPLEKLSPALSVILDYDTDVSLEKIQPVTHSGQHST

| Compound | Ki [1] [nM] | Ki [2] [nM] | Ki [3] [nM] |
| --- | --- | --- | --- |
| C=CCN1CCc2cccc3c2[C@@H]1Cc1cccc(O)c1-3 | > 10000 | 155 | 1595 |
| C=CCN1CCc2cccc3c2[C@H]1Cc1cccc(O)c1-3 | 452 | 2 | 0.034 |
